From PMC10144242, “Design, Synthesis, In Vitro, and In Silico Insights of 5-(Substituted benzylidene)-2-phenylthiazol-4(5H)-one Derivatives: A Novel Class of Anti-Melanogenic Compounds” (Molecules, 2023)

Experiments:
[1] = target: T1, B16F10 cellular tyrosinase (Mus musculus, UniProt P11344); test: Cellular anti-tyrosinase activity assay in IBMX/α-MSH-stimulated cells; assay type: cell-based, murine; conditions: 72 h; for cellular tyrosinase inhibitory activity: IBMX + α-MSH; for effect on cellular tyrosinase activity enhanced by stimulators: B16F10, 5, 10, 20 µM, IBMX 200 µM + α-MSH 1 µM
T1 construct: the anti-tyrosinase effects of these derivatives were investigated using B16F10 cells; host or cells: B16F10 murine melanoma cells
T1 sequence (P11344 19-533): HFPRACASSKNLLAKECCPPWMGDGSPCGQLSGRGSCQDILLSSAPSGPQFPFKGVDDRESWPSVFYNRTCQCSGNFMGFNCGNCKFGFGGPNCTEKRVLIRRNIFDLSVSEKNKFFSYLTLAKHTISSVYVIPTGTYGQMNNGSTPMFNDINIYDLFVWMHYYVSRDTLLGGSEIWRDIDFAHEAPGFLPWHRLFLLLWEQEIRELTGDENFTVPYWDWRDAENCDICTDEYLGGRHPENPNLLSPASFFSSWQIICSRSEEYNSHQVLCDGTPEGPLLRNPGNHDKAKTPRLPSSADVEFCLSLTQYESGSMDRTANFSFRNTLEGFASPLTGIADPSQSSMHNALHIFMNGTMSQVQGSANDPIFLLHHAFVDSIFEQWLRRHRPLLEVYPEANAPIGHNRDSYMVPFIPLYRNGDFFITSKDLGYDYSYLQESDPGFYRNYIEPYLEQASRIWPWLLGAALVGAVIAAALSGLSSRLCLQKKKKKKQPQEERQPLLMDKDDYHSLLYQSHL
Procedure: To examine the origin of the anti-melanogenic effects of (Z)-BPT derivatives 1 and 2, the anti-tyrosinase effects of these derivatives were investigated using B16F10 cells. […] After 72 h of incubation, the effects of 1 and 2 on cellular tyrosinase activity were analyzed.
Briefly, B16F10 melanoma cells were seeded in a 6-well plate at a density of 1 × 10^5 cells/well and allowed to adhere to the bottom of each well under identical conditions to the cell culture. […] After incubation for 1 h, the tyrosinase activity of the cells was increased by treatment with 200 µM IBMX and 1 µM α-MSH. The cells were incubated for 72 h under identical conditions to cell culture before being rinsed twice with PBS, exposed to a 100 µL lysis buffer solution consisting of 90 µL phosphate buffer (50 mM) at pH 6.5, 5 µL PMSF (2 mM), and 5 µL Triton X-100 (20%), and then incubated for 30 min at −80 °C. The cell lysates were placed into microcentrifuge tubes after defrosting and they were centrifuged at 12,000 rpm at 4 °C for 30 min. The supernatants (80 µL) of the lysates were combined with 20 µL of 10 mM L-DOPA in a 96-well plate. Using a microplate reader used for the melanin content assay, the mixture’s absorbances were measured every 10 min for 1 h at 37 °C and 492 nm. Each experiment was performed independently in triplicates.
Figure 8 Anti-tyrosinase activities of (Z)-BPT derivatives 1 and 2 in B16F10 cells. […] (A) Derivative 1 and (B) derivative 2. Data are presented as the mean ± standard error of the mean. ^### p < 0.001; * p < 0.05, ** p < 0.01, and *** p < 0.001.

[2] = target: mushroom tyrosinase (Agaricus bisporus, UniProt C7FF04); test: Kinetic studies on mushroom tyrosinase inhibition (Lineweaver–Burk and Dixon plots, L-DOPA substrate); assay type: biochemical; set-up: purchased Sigma-Aldrich; conditions: for Ki: Dixon plots, read-out: Ki (inhibition constant); for Inhibition type: Lineweaver–Burk plot
Sequence of mushroom tyrosinase (C7FF04 1-392 limits assumed): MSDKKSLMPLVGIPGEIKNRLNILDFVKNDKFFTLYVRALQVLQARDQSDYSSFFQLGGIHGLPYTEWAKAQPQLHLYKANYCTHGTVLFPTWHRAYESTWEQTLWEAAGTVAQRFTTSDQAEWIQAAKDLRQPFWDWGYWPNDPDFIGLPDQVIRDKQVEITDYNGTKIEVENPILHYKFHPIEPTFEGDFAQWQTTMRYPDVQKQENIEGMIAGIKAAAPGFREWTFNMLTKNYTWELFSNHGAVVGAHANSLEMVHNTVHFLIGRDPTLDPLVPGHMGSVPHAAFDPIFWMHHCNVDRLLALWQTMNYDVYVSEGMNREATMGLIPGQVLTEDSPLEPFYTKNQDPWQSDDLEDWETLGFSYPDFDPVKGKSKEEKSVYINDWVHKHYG
Procedure: As depicted in Figure 2, the mechanisms of tyrosinase inhibition were analyzed using Lineweaver–Burk plots. […] Each of the four straight lines produced at each inhibitor concentration converged to a single point on the y-axis. […] In contrast, in derivative 3, four straight lines generated at each inhibitor concentration intersected at a point in the second quadrant. According to the Lineweaver–Burk plot, as the inhibitor concentration increased, the Vmax value of 3 decreased, but the KM value increased.
To determine the Ki (inhibition constant) values of (Z)-BPT derivatives 1–3, Lineweaver–Burk plots for 1–3 were transformed into the corresponding Dixon plots (Figure 3). Each Dixon plot obtained from each Lineweaver–Burk plot produced four straight lines that intersected at one point in the second quadrant. The vertical lines from the merge point to the x-axis provide the Ki value of each (Z)-BPT derivative.
To determine the mode of action, Lineweaver–Burk plots of (Z)-BPT derivatives 1–3 were acquired. In brief, 10 µL of (Z)-BPT derivatives 1–3 (final concentrations:0, 3, 6, or 12 µM for 1; 0, 0.05, 0.1, or 0.2 µM for 2; 0, 2.5, 5, or 10 µM for 3) was added to a 96-well plate containing a substrate mixture (170 µL) consisting of an aqueous solution of L-dopa at final concentrations of 0.5, 1.0, 2.0, or 4.0 mM and 14.7 mM potassium phosphate buffer (pH 6.5), and a mushroom tyrosinase aqueous solution (20 µL, 20 units). Using a microplate reader (VersaMax^TM, Molecular Devices, Sunnyvale, CA, USA) to measure the increase in absorbance at a wavelength of 492 nm (ΔOD492/min), the initial rate of dopachrome synthesis in the reaction mixture was estimated. Using five different concentrations of L-dopa, Lineweaver–Burk plots (inverse of the response rate (1/V) vs. inverse of L-dopa concentration (1/(S)) were created. The convergence points of the four plot lines were used to define the mode of action of tyrosinase inhibition.
Figure 2 Lineweaver–Burk plots for the inhibition of mushroom tyrosinase activity by (Z)-BPT derivatives 1–3. […] Three independent experiments with five different concentrations (0.5, 1, 2, 4, and 8 mM) of an L-DOPA substrate were used to measure the augmented dopachrome optical density per minute at 492 nm. The data are shown as mean values of 1/V (an inverse of that optical density per minute). The (Z)-BPT derivatives were used at concentrations of 0 (filled circles), 3 (unfilled circles), 6 (filled triangles), and 12 µM (unfilled triangles) for 1; 0 (filled circles), 0.05 (unfilled circles), 0.1 (filled triangles), and 0.2 µM (unfilled triangles) for 2; and 0 (filled circles), 2.5 (unfilled circles), 5 (filled triangles), and 10 µM (unfilled triangles) for 3. Each experiment was run independently in triplicates.
Figure 3 Dixon plots for the inhibition of mushroom tyrosinase activity by (Z)-BPT derivatives 1–3. The Ki values of (Z)-BPT derivatives 1–3 were obtained from the absolute values of the x-coordinate where four straight lines converged at one point. Three independent experiments with four different concentrations of (Z)-BPT derivatives were conducted to measure the augmented dopachrome optical density per minute at 492 nm. The data are shown as the mean values of 1/V (an inverse of that optical density per minute). The (Z)-BPT derivatives were used at concentrations of 0, 3, 6, and 12 µM for 1; 0, 0.05, 0.1, and 0.2 µM for 2; and 0, 2.5, 5, and 10 µM for 3. The experiments were performed at four different concentrations (0.5, 1, 2, and 4 mM) of L-DOPA. Each experiment was run independently in triplicates.

O=C1N=C(c2ccccc2)S/C1=C\c1ccc(O)cc1 [Compound 1, (Z)-5-(4-Hydroxybenzylidene)-2-phenylthiazol-4(5H)-one]
cellular tyrosinase inhibitory activity ([1]; B16F10, 20 µM): stronger inhibitory activity than kojic acid
effect on cellular tyrosinase activity enhanced by stimulators [1]: dose-dependently and significantly decreased
Ki [2]: 8.89 µM
Inhibition type [2]: Competitive

O=C1N=C(c2ccccc2)S/C1=C\c1ccc(O)cc1O [Compound 2, (Z)-5-(2,4-Dihydroxybenzylidene)-2-phenylthiazol-4(5H)-one]
cellular tyrosinase inhibitory activity ([1]; B16F10, 5 µM): comparable to that of 20 µM kojic acid
cellular tyrosinase inhibitory activity ([1]; B16F10, 20 µM): reduced the cellular tyrosinase activity to the levels observed in the untreated control
effect on cellular tyrosinase activity enhanced by stimulators [1]: dose-dependently and significantly decreased
Ki [2]: 0.1 µM
Inhibition type [2]: Competitive
